Assay results: ChEMBL document CHEMBL1201862, “PubChem BioAssay data set” (2004)
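Protocol summary: plate cells (96-well), add compound at 5 concentrations, incubate 48 h, interpolate endpoints linearly. GI50 marks 50% less growth.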 Active and inactive are the calls of the source. No stated cut-off is given here; in the data, active = GI50 up to about 1.1 µM and inactive = higher.

Key:
Experiment in all cases: growth of human tumour cells (NCI), 48 h
[1] = test system: SR
[2] = test system: TK-10
[3] = test system: UACC-257
[4] = test system: CAKI-1
[5] = test system: MDA-MB-435
[6] = test system: NCI/ADR-RES
[7] = test system: PC-3
[8] = test system: M14
[9] = test system: MDA-MB-231
[10] = test system: HOP-92
[11] = test system: Hs-578T
[12] = test system: NCI-H522
[13] = test system: CCRF-CEM
[14] = test system: HL-60
[15] = test system: BT-549
[16] = test system: MCF7
[17] = test system: RPMI-8226
[18] = test system: A498
[19] = test system: HCC 2998
[20] = test system: HOP-18

Measured: GI50

O=S(=O)(/N=C(\NO)Nc1ccc(Cl)cc1)c1ccc(-c2ccccn2)s1
inactive: [1] > 100 µM | [2] 61.5 µM | [3] 34 µM | [4] 6.25 µM | [5] 27.5 µM | [6] 30.9 µM | [7] 38.8 µM | [8] 56.1 µM | [9] 49.7 µM | [10] 27.4 µM | [11] 28.8 µM | [12] 11.5 µM | [13] 42.8 µM | [14] 24 µM | [15] 19.6 µM

CCN(CC)CCSc1nc(-c2c[nH]c3nc(C)ccc3c2=O)n[nH]1
inactive: [2] > 100 µM | [3] > 100 µM | [4] > 100 µM | [5] > 100 µM | [6] > 100 µM | [7] > 100 µM | [8] > 100 µM | [16] > 100 µM | [9] > 100 µM | [11] > 100 µM | [17] > 100 µM | [12] > 100 µM | [13] > 100 µM | [14] > 100 µM | [18] > 100 µM | [15] > 100 µM

CCc1cc2c(oc3cc4ccccc4cc32)c(=O)[nH]1
inactive: [19] > 10 µM | [1] > 10 µM | [2] > 10 µM | [3] > 10 µM | [6] > 10 µM | [7] > 10 µM | [8] > 10 µM | [9] > 10 µM | [10] > 10 µM | [11] > 10 µM | [12] > 10 µM | [14] > 10 µM | [15] > 10 µM

O=C1CC2(CCC(O)(c3ccccc3)C(C(=O)c3ccccc3)C2)C(=O)c2ccccc2N1 (stereo not drawn)
inactive: [19] > 100 µM | [1] > 100 µM | [2] > 100 µM | [3] > 100 µM | [4] > 100 µM | [5] > 100 µM | [6] > 100 µM | [7] > 100 µM | [8] > 100 µM | [16] > 100 µM | [9] > 100 µM | [10] 93.5 µM | [11] > 100 µM | [13] 46.8 µM | [14] > 100 µM | [18] > 100 µM | [15] > 100 µM

COc1ccc(C2c3cc4c(cc3OC(Nc3ccccc3)C2C)OCO4)cc1 (stereo not drawn)
inactive: [19] 67.9 µM | [1] 2.42 µM | [2] 91.6 µM | [3] 75.2 µM | [4] 25.4 µM | [5] 67.8 µM | [7] 28.3 µM | [8] 85.9 µM | [16] 23.6 µM | [9] > 100 µM | [10] 23.8 µM | [11] > 100 µM | [17] 26 µM | [12] 12.1 µM | [13] 14.1 µM | [14] 22.2 µM | [18] 58.6 µM | [15] 68.1 µM

N#C/C(=C/NC(=S)c1ccncc1)C(N)=O
inactive: [19] > 100 µM | [2] > 100 µM | [3] > 100 µM | [4] > 100 µM | [5] > 100 µM | [6] > 100 µM | [8] > 100 µM | [16] > 100 µM | [9] > 100 µM | [10] > 100 µM | [14] > 100 µM | [18] > 100 µM | [15] > 100 µM

CCc1c(C)c(C#N)c(=S)n(C2OC(COC(C)=O)C(OC(C)=O)C(OC(C)=O)C2OC(C)=O)c1-c1ccccc1 (stereo not drawn)
inactive: [19] > 31.6 µM | [1] > 31.6 µM | [2] 22.1 µM | [3] > 31.6 µM | [4] 72.3 µM | [5] > 31.6 µM | [6] > 31.6 µM | [7] > 10 µM | [8] > 31.6 µM | [16] > 31.6 µM | [9] 28.4 µM | [10] 22.1 µM | [11] 20.7 µM | [17] 82 µM | [12] 26.1 µM | [13] 33.7 µM | [14] > 100 µM | [18] 14.6 µM | [15] 52.1 µM

Nc1nncc2c1ccn2C1OC(CO)C(O)C1O (stereo not drawn)
inactive: [19] > 100 µM | [1] > 100 µM | [2] > 100 µM | [3] > 100 µM | [8] > 100 µM | [10] > 100 µM | [17] > 100 µM | [13] > 100 µM | [20] > 100 µM | [14] > 100 µM | [18] > 100 µM

Cc1nnc2n1-c1ccccc1N(Cc1ccccc1)CC2
inactive: [19] 79.4 µM | [1] 30.4 µM | [2] 82.6 µM | [3] 63.1 µM | [4] 38 µM | [5] 51.4 µM | [6] 13.8 µM | [7] 49.8 µM | [8] 63.7 µM | [16] 37.4 µM | [9] > 100 µM | [10] 9.55 µM | [11] 58.9 µM | [17] 11.4 µM | [13] 17.6 µM | [14] 23.6 µM | [18] 93.8 µM | [15] 22.1 µM

N=C(N)c1csc([C@@H]2O[C@H](CO)[C@@H](O)[C@H]2O)n1
inactive: [19] > 100 µM | [1] > 100 µM | [2] > 100 µM | [3] > 100 µM | [4] > 100 µM | [8] > 100 µM | [17] > 100 µM | [13] > 100 µM | [20] 59.7 µM | [14] > 100 µM

Cc1ccc2nc(C(C)C)c(=O)[nH]c2c1
inactive: [19] > 100 µM | [1] > 100 µM | [2] > 100 µM | [3] > 100 µM | [4] 43.4 µM | [5] > 100 µM | [6] 54.7 µM | [7] 19.9 µM | [8] > 100 µM | [16] > 100 µM | [9] > 100 µM | [10] > 100 µM | [11] 42.3 µM | [17] > 100 µM | [12] 82.8 µM | [13] > 100 µM | [14] > 100 µM | [18] > 100 µM | [15] > 100 µM

Clc1ccc(COc2ccccc2/C=N/c2c(-c3ccco3)nc3ccccn23)c(Cl)c1
inactive: [19] 95.9 µM | [1] 10.2 µM | [2] 36.2 µM | [3] 39.1 µM | [4] 32.5 µM | [5] 14.5 µM | [6] 30.6 µM | [7] 39.8 µM | [8] 26.1 µM | [16] 12.5 µM | [9] 20.2 µM | [10] 13 µM | [11] 36.9 µM | [17] 29.9 µM | [12] > 100 µM | [13] 12.9 µM | [14] 27 µM | [18] > 100 µM | [15] 30 µM

C/C(=N\NC(=O)c1ccncc1)c1cccc(C(F)(F)F)c1
inactive: [19] > 10 µM | [1] > 10 µM | [2] > 10 µM | [3] > 10 µM | [4] > 10 µM | [6] > 10 µM | [8] > 10 µM | [16] 6.9 µM | [9] > 10 µM | [10] > 10 µM | [11] 1.75 µM | [17] > 10 µM | [13] > 10 µM | [14] > 10 µM | [15] > 10 µM
